# According to ChEMBL document CHEMBL1201862, “PubChem BioAssay data set” (2004):
#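 Protocol summary: plate cells (96-well), add compound at 5 concentrations, incubate 48 h, interpolate endpoints linearly. The concentration for 50% growth inhibition is given as GI50.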 Active and inactive are the calls of the source. Cut-off read from the data, not from the text of the source: active = GI50 up to about 1.1 µM and inactive = higher.
# How the values were obtained:
# Assay in all cases: inhibition of tumour cell growth, NCI panel, 48 h
# [1] = test system: SF-295
# [2] = test system: Malme-3M
# [3] = test system: COLO 205
# [4] = test system: NCI-H226
# [5] = test system: HCC 2998
# [6] = test system: KM12
# [7] = test system: UO-31
# [8] = test system: HT-29
# [9] = test system: OVCAR-8
# [10] = test system: NCI-H522
# [11] = test system: M19-MEL
# [12] = test system: SNB-19
# [13] = test system: LXFL 529
# [14] = test system: SK-MEL-2
# [15] = test system: M14
# [16] = test system: CCRF-CEM
# [17] = test system: DMS-273
# [18] = test system: SK-MEL-28
# [19] = test system: SK-MEL-5
# [20] = test system: SNB-78
# [21] = test system: SW-620
# [22] = test system: RXF 631
# [23] = test system: DLD-1
# [24] = test system: HL-60
# [25] = test system: SK-OV-3
# [26] = test system: HOP-92
# [27] = test system: OVCAR-4
# [28] = test system: NCI-H460
# [29] = test system: A549
# [30] = test system: SF-539
# [31] = test system: HOP-62
# [32] = test system: ACHN
# [33] = test system: UACC-257
# [34] = test system: A498
# [35] = test system: EKVX
# [36] = test system: IGROV-1
# [37] = test system: SN12C
# [38] = test system: RPMI-8226
# [39] = test system: CAKI-1
# [40] = test system: KM-20L2
# [41] = test system: TK-10
# [42] = test system: U-251
# [43] = test system: SF-268
# [44] = test system: 786-0
# [45] = test system: RXF 393
# [46] = test system: OVCAR-3
# [47] = test system: MOLT-4
# [48] = test system: LOX IMVI
# [49] = test system: NCI-H23
# [50] = test system: XF498
# [51] = test system: OVCAR-5
# [52] = test system: K562
# [53] = test system: SNB-75
# [54] = test system: DMS-114
# [55] = test system: HCT-15
# [56] = test system: UACC-62
# [57] = test system: HCT-116
# [58] = test system: HOP-18
compound,measurement,setting,value
CCc1cccc(C)c1NC(=O)C1=C(C)NC(C)=C(C(=O)Nc2c(C)cccc2CC)C1c1ccc([N+](=O)[O-])cc1,GI50,[1],58.7 µM (inactive)
same,GI50,[2],75.3 µM (inactive)
same,GI50,[3],21.9 µM (inactive)
same,GI50,[4],39.8 µM (inactive)
same,GI50,[5],21.3 µM (inactive)
same,GI50,[6],49.9 µM (inactive)
same,GI50,[7],16.3 µM (inactive)
same,GI50,[8],44.5 µM (inactive)
same,GI50,[9],49.5 µM (inactive)
same,GI50,[10],15.5 µM (inactive)
same,GI50,[11],38.1 µM (inactive)
same,GI50,[12],53.5 µM (inactive)
same,GI50,[13],37.9 µM (inactive)
same,GI50,[14],35.6 µM (inactive)
same,GI50,[15],34.8 µM (inactive)
same,GI50,[16],27.4 µM (inactive)
same,GI50,[17],38.6 µM (inactive)
same,GI50,[18],51.4 µM (inactive)
same,GI50,[19],34 µM (inactive)
same,GI50,[20],97.1 µM (inactive)
same,GI50,[21],72.1 µM (inactive)
same,GI50,[22],29.1 µM (inactive)
same,GI50,[23],29 µM (inactive)
same,GI50,[24],17.9 µM (inactive)
same,GI50,[25],> 100 µM (inactive)
same,GI50,[26],2.75 µM (inactive)
same,GI50,[27],13.4 µM (inactive)
same,GI50,[28],28.6 µM (inactive)
same,GI50,[29],33.5 µM (inactive)
same,GI50,[30],> 100 µM (inactive)
same,GI50,[31],40.1 µM (inactive)
same,GI50,[32],18.3 µM (inactive)
same,GI50,[33],41.8 µM (inactive)
same,GI50,[34],40.8 µM (inactive)
same,GI50,[35],27.8 µM (inactive)
same,GI50,[36],29.6 µM (inactive)
same,GI50,[37],45.7 µM (inactive)
same,GI50,[38],15.3 µM (inactive)
same,GI50,[39],25.5 µM (inactive)
same,GI50,[40],39.9 µM (inactive)
same,GI50,[41],83.9 µM (inactive)
same,GI50,[42],60 µM (inactive)
same,GI50,[43],39.9 µM (inactive)
same,GI50,[44],72.8 µM (inactive)
same,GI50,[45],24.4 µM (inactive)
same,GI50,[46],44.9 µM (inactive)
same,GI50,[47],11.6 µM (inactive)
same,GI50,[48],40.9 µM (inactive)
same,GI50,[49],27.3 µM (inactive)
same,GI50,[50],19.4 µM (inactive)
same,GI50,[51],> 100 µM (inactive)
same,GI50,[52],23.9 µM (inactive)
same,GI50,[53],3.98 µM (inactive)
O=c1[nH]c(=O)n([C@@H]2C[C@H](CO)[C@H](O)C2)cc1/C=C/Br,GI50,[1],> 100 µM (inactive)
same,GI50,[2],> 100 µM (inactive)
same,GI50,[4],> 100 µM (inactive)
same,GI50,[5],> 100 µM (inactive)
same,GI50,[6],> 100 µM (inactive)
same,GI50,[7],> 100 µM (inactive)
same,GI50,[8],> 100 µM (inactive)
same,GI50,[9],> 100 µM (inactive)
same,GI50,[10],> 100 µM (inactive)
same,GI50,[11],> 100 µM (inactive)
same,GI50,[54],> 100 µM (inactive)
same,GI50,[12],> 100 µM (inactive)
same,GI50,[13],> 100 µM (inactive)
same,GI50,[55],> 100 µM
same,GI50,[14],> 100 µM (inactive)
same,GI50,[15],> 100 µM (inactive)
same,GI50,[16],> 100 µM (inactive)
same,GI50,[17],> 100 µM (inactive)
same,GI50,[56],> 100 µM (inactive)
same,GI50,[18],> 100 µM (inactive)
same,GI50,[19],> 100 µM (inactive)
same,GI50,[20],> 100 µM (inactive)
same,GI50,[21],> 100 µM (inactive)
same,GI50,[22],> 100 µM (inactive)
same,GI50,[23],> 100 µM (inactive)
same,GI50,[57],> 100 µM (inactive)
same,GI50,[24],> 100 µM (inactive)
same,GI50,[25],> 100 µM (inactive)
same,GI50,[26],> 100 µM (inactive)
same,GI50,[58],> 100 µM (inactive)
same,GI50,[27],> 100 µM (inactive)
same,GI50,[28],> 100 µM (inactive)
same,GI50,[29],> 100 µM (inactive)
same,GI50,[30],> 100 µM (inactive)
same,GI50,[31],> 100 µM (inactive)
same,GI50,[32],> 100 µM (inactive)
same,GI50,[33],> 100 µM (inactive)
same,GI50,[34],> 100 µM (inactive)
same,GI50,[35],> 100 µM (inactive)
same,GI50,[36],> 100 µM (inactive)
same,GI50,[38],> 100 µM (inactive)
same,GI50,[39],> 100 µM (inactive)
same,GI50,[40],> 100 µM (inactive)
same,GI50,[41],> 100 µM (inactive)
same,GI50,[42],> 100 µM (inactive)
same,GI50,[43],> 100 µM (inactive)
same,GI50,[44],> 100 µM (inactive)
same,GI50,[46],> 100 µM (inactive)
same,GI50,[47],> 100 µM (inactive)
same,GI50,[48],> 100 µM (inactive)
same,GI50,[49],> 100 µM (inactive)
same,GI50,[51],> 100 µM (inactive)
same,GI50,[52],> 100 µM (inactive)
same,GI50,[53],> 100 µM (inactive)
